Reference: EP0560267B1, “Isosteric antiherpes peptide derivatives” (BOEHRINGER INGELHEIM (CANADA) LTD., priority 1992, dated 1993)
Read-outs that look alike come from different tables or passages of the source.

Key:
[1] = system: HSV-2; test: Inhibition of Herpes Simplex Virus (HSV-2) replication in cell culture; format: cell-based
Experimental: Inhibition of Herpes Simplex Virus (HSV-2) Replication in Cell Culture
BHK-21/C13 cells (ATCC CCL 10) are incubated for two days in 150 cm^2 T-flasks (1.5 x 10^6 cells/flask) with alpha-MEM medium (Gibco Canada Inc., Burlington, Ontario, Canada) supplemented with 8% (v/v) fetal bovine serum (FBS, Gibco Canada Inc.). The cells are trypsinized and then transferred to fresh media in a 24 well plate to give 2.5 x 10^5 cells in 750 µL of media per well. The cells are incubated at 37° for a period of 6 h to allow them to adhere to the plate. Thereafter, the cells are washed once with 500 µL of alpha-MEM supplemented with 0.5% (v/v) FBS and then incubated with 750 µL of the same media (low serum) for 3 days. After this period of serum starvation, the low serum medium is removed and the cells are incubated in 500 µL of BBMT for 2 to 3 hours. {BBMT medium is described by P. Brazeau et al., Proc. Natl. Acad. Sci. USA, 79, 7909 (1982).} Thereafter, the cells are infected with HSV-2 (multiplicity of infection = 0.02 PFU/cell) in 100 µL of BBMT medium. (Note: The HSV-2 used was strain HG-52, see Y. Langelier and G. Buttin, J. Gen. Virol., 57, 21 (1981); the virus was stored at -80°.) Following 1 h of virus adsorption at 37°, the media is removed and the cells are washed with BBMT (3 X 250 µL). The cells in each well are incubated with or without (control) appropriate concentrations of the test agent dissolved in 200 µL of BBMT medium. After 29 h of incubation at 37°, the infected cells are harvested by first freezing the plate at -80°, followed by thawing. The cells in each well are scraped off the surface of the well with the help of the melting ice fragments. After complete thawing, the cell suspensions are collected and each well is rinsed with 150 µL of BBMT medium. The viral sample (suspension plus washing) is sonicated gently for 4 min at 4°. Cell debris are removed by centrifugation (1000 times gravity for 10 minutes at 4°). The supernatant is collected and stored at -80° until determination of viral titer.
Viral titration was performed by a modification of the colorimetric assay method of M. Langlois et al., Journal of Biological Standardization, 14, 201 (1986).
More specifically, in a similar manner as described above, BHK-21/C13 cells are trypsinized and transferred to fresh media in a 96 well microtiter plate to give 20,000 cells in 100 µL of media per well. The cells in the prepared plate are incubated at 37° for 2 h. During that time, the viral sample is thawed and sonicated gently for 15 seconds, and log dilutions of the sample are prepared (1/5 sequential: 50 µL of the sample plus 200 µL of BBMT medium, sequential dilutions being done with a multichannel pipette.
On completion of the above 2 hour incubation of the BHK-21/C13 cells, the media is replaced with alpha-MEM medium supplemented with 3% (v/v) FBS. The cells are now ready to be infected with the various sample dilutions of virus. Aliquots (50 µL) of the various dilutions are transferred into the appropriate wells of the plate. The resulting infected cells are incubated for 2 days at 37°. Then 50 µL of a 0.15% (v/v) solution of neutral red dye in Hank's Balanced Salt Solution (pH 7.3, Gibco Canada Inc.) is added to each well. The prepared plate is incubated for 45 min at 37°. Medium from each well is then aspirated and the cells are washed once with 200 µL of Hank's Balanced Salt Solution. […]

[2] = molecular target: T1, HSV-1 ribonucleotide reductase (Human herpesvirus 1, UniProt P08543); test: Inhibition of Herpes Simplex Virus (HSV-1) ribonucleotide reductase; format: biochemical; conditions: Table I; partially purified enzyme from BHK-21/C13 cells infected with strain F HSV-1; mean of four assays
T1 construct: HSV-1 ribonucleotide reductase (partially purified) was obtained from quiescent BHK-21/C13 cells infected with strain F HSV-1 virus; made in house; host or cells: quiescent BHK-21/C13 cells infected with HSV-1 strain F (virus-encoded enzyme, partially purified)
Source text: Inhibition of Herpes Simplex Virus (HSV-1) Ribonucleotide Reductase
• a) Preparation of Enzyme HSV-1 ribonucleotide reductase (partially purified) was obtained from quiescent BHK-21/C13 cells infected with strain F HSV-1 virus at 10 plaque forming units/cell as described by E.A. Cohen et al., J. Gen. Virol., 66, 733 (1985). • b) Assay and Results for Exemplified Peptides By following the procedure described by P. Gaudreau et al., J. Biol, Chem., 262, 12413 (1987), the assay results listed in the following Table I were obtained. The assay result for each exemplified compound of formula 1 is expressed as the concentration of the compound producing 50% of the maximal inhibition (IC50) of enzyme activity. The number of units of the enzyme preparation used in each assay was constant, based on the specific activity of the enzyme preparation. The results are relative to the activity obtained in control experiments without the test compound and represent the mean of four assays that varied less than 10% with each other.

[3] = Human alphaherpesvirus 2, BHK21 (C13), 29 h, Table II, BHK-21/C13 cells, HSV-2 strain HG-52, 0.02 PFU/cell, 29 h incubation, read-out: EC50
[4] = Human alphaherpesvirus 2, BHK21 (C13), 29 h

T1 sequence (P08543 whole entry): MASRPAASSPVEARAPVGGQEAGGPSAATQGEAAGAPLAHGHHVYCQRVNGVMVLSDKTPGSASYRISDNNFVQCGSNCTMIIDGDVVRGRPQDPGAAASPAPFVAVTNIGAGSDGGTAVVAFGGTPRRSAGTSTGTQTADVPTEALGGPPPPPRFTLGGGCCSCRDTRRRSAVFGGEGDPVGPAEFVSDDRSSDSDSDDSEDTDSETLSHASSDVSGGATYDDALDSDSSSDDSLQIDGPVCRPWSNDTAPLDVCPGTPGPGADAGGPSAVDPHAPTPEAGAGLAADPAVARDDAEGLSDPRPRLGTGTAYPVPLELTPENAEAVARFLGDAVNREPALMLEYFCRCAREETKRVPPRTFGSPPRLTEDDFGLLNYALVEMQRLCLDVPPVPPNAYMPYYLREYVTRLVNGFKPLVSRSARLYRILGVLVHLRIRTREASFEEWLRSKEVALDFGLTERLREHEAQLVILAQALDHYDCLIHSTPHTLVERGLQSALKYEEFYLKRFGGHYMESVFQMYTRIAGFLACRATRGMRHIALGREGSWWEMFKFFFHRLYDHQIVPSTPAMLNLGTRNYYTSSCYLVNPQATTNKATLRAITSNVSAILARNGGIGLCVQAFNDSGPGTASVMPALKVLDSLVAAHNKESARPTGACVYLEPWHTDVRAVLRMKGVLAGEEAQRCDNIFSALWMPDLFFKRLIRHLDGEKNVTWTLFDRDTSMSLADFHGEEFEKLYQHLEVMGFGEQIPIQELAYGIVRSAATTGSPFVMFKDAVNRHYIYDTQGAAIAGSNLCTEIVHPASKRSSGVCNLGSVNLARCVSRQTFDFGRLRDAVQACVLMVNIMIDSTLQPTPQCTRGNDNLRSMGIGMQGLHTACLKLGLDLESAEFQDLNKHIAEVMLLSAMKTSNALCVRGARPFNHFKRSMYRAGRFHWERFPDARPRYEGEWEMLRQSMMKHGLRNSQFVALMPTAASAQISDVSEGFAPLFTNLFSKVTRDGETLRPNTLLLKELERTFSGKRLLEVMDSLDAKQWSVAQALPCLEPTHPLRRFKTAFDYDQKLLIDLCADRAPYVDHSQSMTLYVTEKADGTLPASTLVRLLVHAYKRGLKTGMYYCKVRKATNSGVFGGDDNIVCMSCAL

CCCC1(NC(=O)N[C@H](C(=O)C[C@@H](CC(=O)C(C)(C)C)C(=O)N[C@H](C(=O)NCC(C)(C)C)C2(C(=O)O)CCCC2)C(C)(C)C)CCCC1 [(1-propylcyclopentyl)aminocarbonyl-Tbg-CH2-(R)-CH(CH2C(O)CMe3)C(O)-Asp(cyPn)-NHCH2CMe3]
EC50 [1, 3]: 40 µM

CCC(CC)NC(=O)NC(C(=O)CC(CC(=O)C(C)(C)C)C(=O)NC(C(=O)NC(CC(C)(C)C)C(N)=O)C1(C(=O)O)CCCC1)C(C)(C)C [Et2CHNHC(O)-Tbg-CH2-(R)-CH(CH2C(O)-CMe3)C(O)-Asp(cyPn)-γMeLeu-NH2]
IC50 [2]: 0.22 µM

CCC(CC)NC(=O)NC(C(=O)CC(CC(=O)C(C)(C)C)C(=O)NC(C(=O)NC(CC(C)(C)C)C(=O)O)C1(C(=O)O)CCCC1)C(C)(C)C [Et2CHNHC(O)-Tbg-CH2-(R)-CH(CH2C(O)-CMe3)C(O)-Asp(cyPn)-γMeLeu-OH]
IC50 [2]: 0.12 µM

CCC(CC)NC(=O)NC(C(=O)CC(CC(=O)C(C)(C)C)C(=O)NC(C(=O)NCC(C)(C)C)C(C)C(=O)O)C(C)(C)C [Et2CHNHC(O)-Tbg-CH2-(R)-CH(CH2C(O)-CMe3)C(O)-Asp{(R)-Me}-NHCH2CMe3]
IC50 [2]: 0.2 µM

CCCC(CC)(CCC)NC(=O)N[C@H](C(=O)C[C@@H](CC(=O)C(C)(C)C)C(=O)N[C@H](C(=O)NCC(C)(C)C)C1(C(=O)O)CCCC1)C(C)(C)C [EtPr2CNHC(O) / NHCH2CMe3, EtPr2CNHC(O)-Tbg-CH2-(R)-CH(CH2C(O)CMe3)C(O)-Asp(cyPn)-NHCH2CMe3]
EC50 ([1]; Human alphaherpesvirus 2, Table IV, cell culture assay of example 11, read-out: EC50): 16 µM

CC(C)C(C(=O)NC(C(=O)CC(CC(=O)C(C)(C)C)C(=O)NC(C(=O)NCC(C)(C)C)C1(C(=O)O)CCCC1)C(C)(C)C)N(C)C(=O)CCc1ccccc1 [PhCH2CH2C(O)-(N-Me)Val-Tbg-CH2-(R)-CH(CH2C(O)CMe3)C(O)-Asp(cyPn)-NHCH2CMe3]
IC50 [2]: 0.33 µM

CC(C)[C@@H](C(=O)N[C@H](C(=O)C[C@@H](CC(=O)C(C)(C)C)C(=O)N[C@H](C(=O)N[C@@H](CC(C)(C)C)C(N)=O)C1(C(=O)O)CCCC1)C(C)(C)C)N(C)C(=O)CCc1ccccc1 [PhCH2CH2C(O)-(N-Me)Val-Tbg-CH2-(R)-CH(CH2C(O)CMe3)C(O)-Asp(cyPn)-γMeLeu-NH2]
EC50 [1, 4]: 60 µM

CC(C)[C@@H](C(=O)N[C@H](C(=O)C[C@@H](CC(=O)C(C)(C)C)C(=O)N[C@H](C(=O)N[C@@H](CC(C)(C)C)C(=O)O)C1(C(=O)O)CCCC1)C(C)(C)C)N(C)C(=O)CCc1ccccc1 [PhCH2CH2C(O)-(N-Me)Val-Tbg-CH2-(R)-CH(CH2C(O)CMe3)C(O)-Asp(cyPn)-γMeLeu-OH]
EC50 [1, 4]: 65 µM

CC(C)C(C(=O)NC(C(=O)CC(CC(=O)C(C)(C)C)C(=O)NC(C(=O)NCC(C)(C)C)C(C)C(=O)O)C(C)(C)C)N(C)C(=O)CCc1ccccc1 [PhCH2CH2C(O)-(N-Me)Val-Tbg-CH2-(R)-CH(CH2C(O)CMe3)C(O)-Asp{(R)-Me}-NHCH2CMe3]
IC50 [2]: 0.33 µM

CCCC(CCC)NC(=O)NC(C(=O)CC(CC(=O)C(C)(C)C)C(=O)NC(C(=O)NC1CCCCC1C)C1(C(=O)O)CCCC1)C(C)(C)C [Pr2CHNHC(O) / trans-NH-(2-methyl-cyclohexyl)] [Pr2CHNHC(O)-Tbg-CH2-(R)-CH(CH2C(O)CMe3)C(O)-Asp(cyPn)-trans-NH-(2-methyl-cyclohexyl)]
EC50 ([1]; Table IV, cell culture assay of example 11, read-out: EC50): 60 µM

CCCC(CCC)NC(=O)N[C@H](C(=O)C[C@@H](CC(=O)C1CCCC1)C(=O)N[C@H](C(=O)NCC(C)(C)C)C1(C(=O)O)CCCC1)C(C)(C)C [Pr2CHNHC(O)-Tbg-CH2-(R)-CH{CH2C(O)(cyclopentyl)}C(O)-Asp(cyPn)-NHCH2CMe3]
EC50 [1, 3]: 30 µM

CC(C)[C@@H](C(=O)N[C@H](C(=O)C[C@@H](CC(=O)C(C)(C)C)C(=O)N[C@H](C(=O)N[C@H](CO)CC(C)(C)C)C1(C(=O)O)CCCC1)C(C)(C)C)N(C)C(=O)CCc1ccccc1 [Title Compound of Example 6, PhCH2CH2C(O)-(N-Me)Val-Tbg-CH2(R)-CH(CH2C(O)CMe3)C(O)-Asp(cyPn)-γMeLeucinol]
EC50 ([1]; Human alphaherpesvirus 2, BHK21 (C13)): 19 µM
EC50 [1, 4]: 15 µM

Nc1nc2c(ncn2COCCO)c(=O)[nH]1 [acyclovir, reference compound]
EC50 ([1]; Human alphaherpesvirus 2, BHK21 (C13), Table III, agent alone, BHK-21/C13 cells, HSV-2 strain HG-52, read-out: EC50): 3.5 µM
action of the combination of acyclovir and the peptide of formula 1 ([1]; combination of acyclovir with the title peptide of example 6, EC50's lower than acyclovir alone, isobole method, Figure 1): synergistic action

Pr2CHNHC(O)-Tbg-CH2-(R)-CH-(CH2C(O)CH2CMe3)C(O)-Asp(cyPn)-Leu-OH
EC50 ([1]; Table V, cell culture assay of example 11, read-out: EC50): 80 µM
